Measurements taken from patent US20090062253A1, “HETEROCYCLODIAZEPINE CANNABINOID RECEPTOR MODULATORS FOR TREATMENT OF DISEASE” (KALYPSYS, INC., priority 2007, published 2009).

Columns and labels:
[1] = target: T1, human cannabinoid receptor type 1 (Homo sapiens, UniProt P21554); experiment: Human CB1 Radioligand Binding Assay (basis of selectivity CB2 vs. CB1)
T1 construct: purchased Perkin Elmer RBHCB1M; host or cells: HEK 293 EBNA cells
Method: (§1) This receptor binding filtration assay measures the receptor-ligand interactions of compounds by measuring ability to compete with a radiolabeled control ligand. Reactions were performed in 96 deep-well plate (Costar 3961) with a final volume of 600 ul. Compounds were added to each well either in single point (10 uM final) or dose-response. Compounds were delivered in DMSO or further diluted in incubation buffer to a final assay DMSO concentration of 1%. Incubation buffer (50 mM Tris-HCl pH 7.4, 2.5 mM EGTA, 5 mM MgCl2, 5.0 mg/ml fatty acid free BSA) was added to each well. Following buffer addition, [^3H] CP-55,940 was added. Tritiated CP-55,940 (Perkin Elmer) was used at the Kd determined from prior saturation binding experiments conducted on each lot of membranes. Membrane preparations from stably transfected CHO CB2 cells were added and the reaction was incubated for 90 minutes at 30° C. Unifilter GF/C filtration plates (Perkin Elmer) were pre-wet with 0.05% polyethylenimine. Samples were transferred to Unifilter plates and separation of unbound radioligand was achieved using a vacuum manifold (Millipore). Following thorough washing with 5 ml/well ice-cold wash buffer (50 mM Tris-HCl pH 7.4, 2.5 mM EGTA, 5 mM MgCl2, 0.5 mg/ml fatty acid free BSA), filterplates were dried completely. Betaplate Scint Scintillation cocktail (25 ul, Perkin Elmer) was applied and plates were read using Microbeta Trilux (Wallac). Data analysis was performed in Spotfire. Activity of the positive control (100 nM CP-55,940) was set as 100% efficacy.
The CB1 binding assay was performed as described above except that HEK 293 EBNA cells expressing human cannabinoid receptor type 1 (Perkin Elmer cat #RBHCB1M) were used according the manufacturer's instructions. The incubation buffer was composed of 50 mM Tris-HCl pH 7.4, 2.5 mM EDTA, 5 mM MgCl2, 5.0 mg/ml fatty acid free BSA and the wash buffer was composed of 50 mM Tris-HCl pH 7.4, 2.5 mM EDTA, 5 mM MgCl2, 0.5 mg/ml fatty acid free BSA. Activity of the positive control (100 nM CP-55,940) was set as 100% efficacy.

Human CB2 = target: T2, Human CB2 (Homo sapiens, UniProt P34972); experiment: Human CB2 Radioligand Binding Assay; settings: membranes from stably transfected CHO CB2 cells; competition with [3H] CP-55,940; read-out: CB2 Ligand Binding Asssay
T2 construct: expressed in transfected cells; membrane preparation
Method: as §1
Stable recombinant Human CB2-CHO cell membranes were prepared as follows: Chinese Hamster Ovarian (CHO) cells stably expressing human cannabinoid receptor type 2 were grown to ˜90% confluence in 15×100 mm culture dishes under puromycin selection (5 ug/ml) Cells were harvested from culture flasks using a cell scraper, were washed once with cold phosphate-buffered saline (calcium and magnesium free) and pelleted by centrifugation at 400 g for 5 min at 4° C. Cell pellet was washed once with cold phosphate-buffered saline and centrifuged again at 400×g for 5 min at 4° C. The pellet was suspended in ice-cold lysis buffer (10 mM Tris-HCl, 0.1 mM EDTA, containing […], pH 7.5) and homogenized in a chilled 7 ml glass dounce homogenizer using 50 strokes. The homogenate was centrifuged at 400 g for 15 min at 4° C. The cloudy supernatant was collected and centrifuged at 41000 g for 30 min at 4° C. The resulting pellet was washed with ice-cold sucrose-free lysis buffer and centrifuged again at 41000 g for 30 min at 4° C. The membrane pellet was suspended in sucrose-free storage buffer (10 mm Tris-HCl, 0.1 mM EDTA, pH 7.5) to a concentration of 2-3 mg protein/ml. Aliquots were flash frozen in liquid nitrogen and stored at −80° C. Concentration was determined using Dc protein assay kit (Bio-Rad).

T1 sequence (P21554 whole entry): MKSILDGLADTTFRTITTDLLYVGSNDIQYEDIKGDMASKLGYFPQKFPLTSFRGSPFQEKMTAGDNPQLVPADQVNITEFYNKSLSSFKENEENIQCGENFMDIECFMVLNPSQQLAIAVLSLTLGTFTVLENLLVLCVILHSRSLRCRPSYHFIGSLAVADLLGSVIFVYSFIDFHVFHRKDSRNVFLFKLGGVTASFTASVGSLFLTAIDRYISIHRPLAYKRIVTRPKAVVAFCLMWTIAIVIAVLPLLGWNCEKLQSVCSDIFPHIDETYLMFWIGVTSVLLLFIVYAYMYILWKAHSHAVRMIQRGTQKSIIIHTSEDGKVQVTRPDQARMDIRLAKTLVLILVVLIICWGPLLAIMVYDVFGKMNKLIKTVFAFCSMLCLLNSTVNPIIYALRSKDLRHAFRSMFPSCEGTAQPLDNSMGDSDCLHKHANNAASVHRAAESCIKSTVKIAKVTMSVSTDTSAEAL
T2 sequence (P34972 whole entry): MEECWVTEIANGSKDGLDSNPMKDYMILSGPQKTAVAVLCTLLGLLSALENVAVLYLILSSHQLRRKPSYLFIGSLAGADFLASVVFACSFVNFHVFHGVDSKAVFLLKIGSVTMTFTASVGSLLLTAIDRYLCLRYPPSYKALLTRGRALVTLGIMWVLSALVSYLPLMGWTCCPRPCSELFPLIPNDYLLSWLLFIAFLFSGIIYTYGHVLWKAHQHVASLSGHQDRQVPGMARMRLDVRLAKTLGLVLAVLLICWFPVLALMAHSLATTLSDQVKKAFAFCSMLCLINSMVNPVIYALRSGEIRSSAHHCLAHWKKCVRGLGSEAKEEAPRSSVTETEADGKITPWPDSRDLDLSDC

`O=C(Nc1ccc(Cl)cc1)[C@H]1CCCn2cccc2[C@@H]1c1ccccc1` (relative stereo) [Example 109, (8,9-trans)-N-(4-Chlorophenyl)-9-phenyl-6,7,8,9-tetrahydro-5H-pyrrolo[1,2-a]azepine-8-carboxamide] was tested, and the “Selectivity, CB2 vs. CB1” value [1] was “− (− indicates < 10-fold)” and the IC50 (radioligand displacement) (Human CB2) was > 1 µM.
In the case of `O=C(Nc1ccc(Cl)cc1)[C@H]1CCCn2cccc2[C@H]1c1ccccc1` (relative stereo) [Example 110, (8,9-cis)-N-(4-Chlorophenyl)-9-phenyl-6,7,8,9-tetrahydro-5H-pyrrolo[1,2-a]azepine-8-carboxamide], the “Selectivity, CB2 vs. CB1” value [1] is reported as “− (− indicates < 10-fold)” and the IC50 (radioligand displacement) (Human CB2) is reported as < 1 µM.
In the case of `O=C(Nc1ccc(C(F)(F)F)cc1)[C@H]1CCCn2cccc2[C@@H]1c1ccccc1` (relative stereo) [Example 111, (8,9-trans)-9-Phenyl-N-(4-(trifluoromethyl)phenyl)-6,7,8,9-tetrahydro-5H-pyrrolo[1,2-a]azepine-8-carboxamide], the “Selectivity, CB2 vs. CB1” value [1] is reported as “− (− indicates < 10-fold)” and the IC50 (radioligand displacement) (Human CB2) is reported as > 1 µM.
`O=C(Nc1ccc(OC(F)(F)F)cc1)[C@H]1CCCn2cccc2[C@H]1c1ccccc1` (relative stereo) [Example 114, (8,9-cis)-9-Phenyl-N-(4-(trifluoromethoxy)phenyl)-6,7,8,9-tetrahydro-5H-pyrrolo[1,2-a]azepine-8-carboxamide] was tested, and the “Selectivity, CB2 vs. CB1” value [1] was “− (− indicates < 10-fold)” and the IC50 (radioligand displacement) (Human CB2) was < 1 µM.
`O=C(Nc1ccc(F)cc1F)C1CCCn2cccc2C1c1ccccc1` (single isomer, unassigned) [Example 106, (8,9-cis)-N-(2,4-Difluorophenyl)-9-phenyl-6,7,8,9-tetrahydro-5H-pyrrolo[1,2-a]azepine-8-carboxamide] was tested, and the “Selectivity, CB2 vs. CB1” value [1] was “+ (+ indicates > 10-fold)” and the IC50 (radioligand displacement) (Human CB2) was < 1 µM.
For `O=C(Nc1ccc(F)c(F)c1)C1CCCn2cccc2C1c1ccccc1` (single isomer, unassigned) [Example 108, (8,9-cis)-N-(3,4-Difluorophenyl)-9-phenyl-6,7,8,9-tetrahydro-5H-pyrrolo[1,2-a]azepine-8-carboxamide], the “Selectivity, CB2 vs. CB1” value [1] was “− (− indicates < 10-fold)” and the IC50 (radioligand displacement) (Human CB2) was > 1 µM.
With `O=C(Nc1ccc(OC(F)(F)F)cc1)C1CCCn2cccc2C1c1ccccc1` (single isomer, unassigned) [Example 113, (8,9-trans)-9-Phenyl-N-(4-(trifluoromethoxy)phenyl)-6,7,8,9-tetrahydro-5H-pyrrolo[1,2-a]azepine-8-carboxamide] the “Selectivity, CB2 vs. CB1” value [1] was “− (− indicates < 10-fold)” and the IC50 (radioligand displacement) (Human CB2) was > 1 µM.
`CC(C)(C)c1ccc(C2c3cccn3CCCC2NC(=O)Nc2ccc(Cl)cc2Cl)cc1` (single isomer, unassigned) [Example 118, 1-(9-(4-tert-Butylphenyl)-6,7,8,9-tetrahydro-5H-pyrrolo[1,2-a]azepin-8-yl)-3-(2,4-dichlorophenyl)urea] was tested, and the “Selectivity, CB2 vs. CB1” value [1] was “− (− indicates < 10-fold)” and the IC50 (radioligand displacement) (Human CB2) was < 1 µM.
For `CC(C)(C)c1ccc(C2c3cccn3CCCC2NC(=O)Nc2ccc(Cl)cc2Cl)cc1` (single isomer, unassigned) [Example 119, 1-(9-(4-tert-Butylphenyl)-6,7,8,9-tetrahydro-5H-pyrrolo[1,2-a]azepin-8-yl)-3-(2,4-dichlorophenyl)urea], the “Selectivity, CB2 vs. CB1” value [1] was “− (− indicates < 10-fold)” and the IC50 (radioligand displacement) (Human CB2) was > 1 µM.
In the case of `CC(C)(C)c1ccc(C2c3cccn3CCCC2NC(=O)Nc2ccc(Cl)c(Cl)c2)cc1` (single isomer, unassigned) [Example 120, 1-(9-(4-tert-Butylphenyl)-6,7,8,9-tetrahydro-5H-pyrrolo[1,2-a]azepin-8-yl)-3-(3,4-dichlorophenyl)urea], the “Selectivity, CB2 vs. CB1” value [1] is reported as “− (− indicates < 10-fold)” and the IC50 (radioligand displacement) (Human CB2) is reported as > 1 µM.
`CC(C)(C)c1ccc(C2c3cccn3CCCC2NC(=O)Nc2ccc(Cl)c(Cl)c2)cc1` (single isomer, unassigned) [Example 121, 1-(9-(4-tert-Butylphenyl)-6,7,8,9-tetrahydro-5H-pyrrolo[1,2-a]azepin-8-yl)-3-(3,4-dichlorophenyl)urea] was tested, and the “Selectivity, CB2 vs. CB1” value [1] was “− (− indicates < 10-fold)” and the IC50 (radioligand displacement) (Human CB2) was > 1 µM.
With `CC(C)(C)c1ccc(C2NCCn3cccc32)cc1` (centres unmarked) [Example 1, 1-(4-tert-Butylphenyl)-1,2,3,4-tetrahydropyrrolo[1,2-a]pyrazine] the “Selectivity, CB2 vs. CB1” value [1] was “− (− indicates < 10-fold)” and the IC50 (radioligand displacement) (Human CB2) was > 1 µM.
In the case of `CC(C)(C)c1ccc(C2c3cccn3CCN2C(=O)Nc2ccc(F)cc2F)cc1` (centres unmarked) [Example 2, 1-(4-tert-Butylphenyl)-N-(2,4-difluorophenyl)-3,4-dihydropyrrolo[1,2-a]pyrazine-2(1H)-carboxamide], the “Selectivity, CB2 vs. CB1” value [1] is reported as “+ (+ indicates > 10-fold)” and the IC50 (radioligand displacement) (Human CB2) is reported as < 1 µM.
With `O=C(Nc1ccc(F)cc1F)N1CCn2cccc2C1c1ccccc1` (centres unmarked) [Example 5, N-(2,4-Difluorophenyl)-1-phenyl-3,4-dihydropyrrolo[1,2-a]pyrazine-2(1H)-carboxamide] the “Selectivity, CB2 vs. CB1” value [1] was “+ (+ indicates > 10-fold)” and the IC50 (radioligand displacement) (Human CB2) was > 1 µM.
`CC(C)(C)c1ccc(C2c3cccn3CCCN2C(=O)Nc2ccc(F)cc2F)cc1` (centres unmarked) [Example 7, 1-(4-tert-Butylphenyl)-N-(2,4-difluorophenyl)-4,5-dihydro-1H-pyrrolo[1,2-a][1,4]diazepine-2(3H)-carboxamide] was tested, and the “Selectivity, CB2 vs. CB1” value [1] was “+ (+ indicates > 10-fold)” and the IC50 (radioligand displacement) (Human CB2) was < 1 µM.
In the case of `Cc1ccc(C2c3cccn3CCCN2C(=O)Nc2ccc(F)cc2F)cc1` (centres unmarked) [Example 8, N-(2,4-Difluorophenyl)-1-p-tolyl-4,5-dihydro-1H-pyrrolo[1,2-a][1,4]diazepine-2(3H)-carboxamide], the “Selectivity, CB2 vs. CB1” value [1] is reported as “− (− indicates < 10-fold)” and the IC50 (radioligand displacement) (Human CB2) is reported as < 1 µM.
`Cc1cccc(C2c3cccn3CCCN2C(=O)Nc2ccc(F)cc2F)c1` (centres unmarked) [Example 10, N-(2,4-Difluorophenyl)-1-m-tolyl-4,5-dihydro-1H-pyrrolo[1,2-a][1,4]diazepine-2(3H)-carboxamide] was tested, and the “Selectivity, CB2 vs. CB1” value [1] was “− (− indicates < 10-fold)” and the IC50 (radioligand displacement) (Human CB2) was > 1 µM.
For `Cc1cccc(C2c3cccn3CCCN2C(=O)Nc2ccc(Cl)cc2Cl)c1` (centres unmarked) [Example 11, N-(2,4-Dichlorophenyl)-1-m-tolyl-4,5-dihydro-1H-pyrrolo[1,2-a][1,4]diazepine-2(3H)-carboxamide], the “Selectivity, CB2 vs. CB1” value [1] was “− (− indicates < 10-fold)” and the IC50 (radioligand displacement) (Human CB2) was > 1 µM.
With `O=C(Nc1ccc(F)cc1F)N1CCCn2cccc2C1c1ccccc1` (centres unmarked) [Example 12, N-(2,4-Difluorophenyl)-1-phenyl-4,5-dihydro-1H-pyrrolo[1,2-a][1,4]diazepine-2(3H)-carboxamide] the “Selectivity, CB2 vs. CB1” value [1] was “− (− indicates < 10-fold)” and the IC50 (radioligand displacement) (Human CB2) was > 1 µM.
For `O=C(Nc1ccc(Cl)cc1Cl)N1CCCn2cccc2C1c1ccccc1` (centres unmarked) [Example 13, N-(2,4-Dichlorophenyl)-1-phenyl-4,5-dihydro-1H-pyrrolo[1,2-a][1,4]diazepine-2(3H)-carboxamide], the “Selectivity, CB2 vs. CB1” value [1] was “− (− indicates < 10-fold)” and the IC50 (radioligand displacement) (Human CB2) was > 1 µM.
For `CC(C)(C)c1cccc(C2c3cccn3CCCN2C(=O)Nc2ccc(F)cc2F)c1` (centres unmarked) [Example 18, 1-(3-tert-Butylphenyl)-N-(2,4-difluorophenyl)-4,5-dihydro-1H-pyrrolo[1,2-a][1,4]diazepine-2(3H)-carboxamide], the “Selectivity, CB2 vs. CB1” value [1] was “+ (+ indicates > 10-fold)” and the IC50 (radioligand displacement) (Human CB2) was < 1 µM.
For `CC(C)(C)c1cccc(C2c3cccn3CCCN2C(=O)Nc2ccc(Cl)cc2Cl)c1` (centres unmarked) [Example 19, 1-(3-tert-Butylphenyl)-N-(2,4-dichlorophenyl)-4,5-dihydro-1H-pyrrolo[1,2-a][1,4]diazepine-2(3H)-carboxamide], the “Selectivity, CB2 vs. CB1” value [1] was “− (− indicates < 10-fold)” and the IC50 (radioligand displacement) (Human CB2) was > 1 µM.
